Results as given in paper PMC5553068 (Bioorganic & medicinal chemistry, 2017).

Tests used:
[1] = Table 7, literature comparators, no reference given; cited from earlier work
human renin = target: T1, human renin (Homo sapiens, UniProt P00797); conditions: for Ligand Efficiency: Table 3
T1 sequence (P00797 67-406): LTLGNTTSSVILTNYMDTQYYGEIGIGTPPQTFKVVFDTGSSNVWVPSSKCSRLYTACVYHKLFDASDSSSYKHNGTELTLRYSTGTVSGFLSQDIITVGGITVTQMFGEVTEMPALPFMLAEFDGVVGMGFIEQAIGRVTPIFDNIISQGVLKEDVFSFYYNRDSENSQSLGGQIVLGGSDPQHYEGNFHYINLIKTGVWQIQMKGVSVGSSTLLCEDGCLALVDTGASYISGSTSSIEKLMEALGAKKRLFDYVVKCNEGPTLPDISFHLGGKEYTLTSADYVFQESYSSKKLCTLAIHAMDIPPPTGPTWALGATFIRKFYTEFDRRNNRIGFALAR

renin = conditions: ligand of the 2IKO X-ray structure; cited from earlier work
[2] = Rat in vivo pharmacokinetic studies; set-up: species or system Sprague Dawley rats; conditions: for AUC: 10 mg/kg po dose, HCl salts, vehicle D5W, mean n = 3; for clearance / bioavailability: Sprague-Dawley, plasma; for clearance: iv, 1 mg/kg; for bioavailability: po, 10 mg/kg

For CCc1nc(N)nc(N)c1-c1ccc2c(c1)N(CCCOC)C(=O)C(C)(c1cc(F)cc(F)c1)O2 (centres unmarked) [Compound 7c], the “%F (rat)” value [1] is listed as 0.4%.

For CCc1nc(N)cc(C)c1-c1cccc2c(C)c[nH]c12 [Compound 20, 6-Ethyl-4-methyl-5-(3-methyl-1H-indol-7-yl)pyridin-2-amine], the “fold improvement in activity” value (human renin; going from 17 to 19 and then to 20) was 36 fold.

For CCc1nc(N)nc(N)c1-c1ccc2c(c1)N(CCCOC)CCC2 [Compound 6c, reference compound], the “Ligand Efficiency” value (human renin) was 0.34.

In the case of CCc1nc(N)nc(N)c1-c1ccc(NCc2cc(F)cc(F)c2)cc1 [Compound 8], the IC50 (renin) is given as 4 µM.

With CCc1nc(N)cc(OC)c1-c1ccc2c(c1)N(CCCOC)CCC2 [Compound 15, 6-Ethyl-4-methoxy-5-(1-(3-methoxypropyl)-1,2,3,4-tetrahydroquinolin-7-yl)pyridin-2-amine] the “Ligand Efficiency” value (human renin) was 0.33.

Compound CCc1nc(N)cc(OC)c1-c1ccc2c(c1)N(CCNC(C)=O)C(=O)C(C)(C)O2 [Compound 33, N-(2-(6-(6-Amino-2-ethyl-4-methoxypyridin-3-yl)-2,2-dimethyl-3-oxo-2H-benzo[b][1,4]oxazin-4(3H)-yl)ethyl)acetamide] has an AUC [2] of 1493 ngh/mL, a clearance [2] of 56 mL/min/kg and a bioavailability [2] of 39%.

For CCc1nc(N)cc(C)c1-c1ccc2c(c1)N(CCNC(C)=O)C(=O)C(C)(C)O2 [Compound 32, N-(2-(6-(6-Amino-2-ethyl-4-methylpyridin-3-yl)-2,2-dimethyl-3-oxo-2H-benzo[b][1,4]oxazin-4(3H)-yl)ethyl)acetamide], the AUC [2] was 1810 ngh/mL, the clearance [2] was 66 mL/min/kg and the bioavailability [2] was 58%.

For CCc1nc(N)cc(C)c1-c1ccc(F)c2c(C)c(CCOC)[nH]c12 [Compound 27, 6-Ethyl-5-(4-fluoro-2-(2-methoxyethyl)-3-methyl-1H-indol-7-yl)-4-methylpyridin-2-amine], the AUC [2] was 473 ngh/mL, the clearance [2] was 68 mL/min/kg and the bioavailability [2] was 20%.

In the case of CCc1nc(N)cc(C)c1-c1ccc2c(c1)N(CCCOC)C(=O)C(C)(C)O2 [Compound 34, 6-(6-Amino-2-ethyl-4-methylpyridin-3-yl)-4-(3-methoxypropyl)-2,2-dimethyl-2H-benzo[b][1,4]oxazin-3(4H)-one], the “fold improvement in affinity vs 7b” value (human renin; 6-ethyl-2-aminopyridine head group vs pyrimidine 7b, Table 5) is reported as 2- to 3 fold.

For COCCCN1CCCc2ccc(-c3c(C)cc(N)nc3C)cc21 [Compound 12, 5-(1-(3-Methoxypropyl)-1,2,3,4-tetrahydroquinolin-7-yl)-4,6-dimethylpyridin-2-amine], the “Ligand Efficiency” value (human renin) was 0.27.

In the case of CCc1nc(N)cc(C)c1-c1ccc2c(c1)N(CCCOC)CCC2 [Compound 13, 6-Ethyl-5-(1-(3-methoxypropyl)-1,2,3,4-tetrahydroquinolin-7-yl)-4-methylpyridin-2-amine], the “Ligand Efficiency” value (human renin) is reported as 0.34.
